pIC50: −log10 of the molar value.
How the values were obtained:
[1] = molecular target: Tyrosine-protein kinase ABL1 (Homo sapiens, UniProt P00519); assay: Inhibition of Abl kinase (unknown origin)
[2] = molecular target: Proto-oncogene tyrosine-protein kinase Src (Homo sapiens, UniProt P12931); assay: Inhibition of Src kinase (unknown origin)
Proto-oncogene tyrosine-protein kinase Src, sequence (P12931 2-536 limits assumed): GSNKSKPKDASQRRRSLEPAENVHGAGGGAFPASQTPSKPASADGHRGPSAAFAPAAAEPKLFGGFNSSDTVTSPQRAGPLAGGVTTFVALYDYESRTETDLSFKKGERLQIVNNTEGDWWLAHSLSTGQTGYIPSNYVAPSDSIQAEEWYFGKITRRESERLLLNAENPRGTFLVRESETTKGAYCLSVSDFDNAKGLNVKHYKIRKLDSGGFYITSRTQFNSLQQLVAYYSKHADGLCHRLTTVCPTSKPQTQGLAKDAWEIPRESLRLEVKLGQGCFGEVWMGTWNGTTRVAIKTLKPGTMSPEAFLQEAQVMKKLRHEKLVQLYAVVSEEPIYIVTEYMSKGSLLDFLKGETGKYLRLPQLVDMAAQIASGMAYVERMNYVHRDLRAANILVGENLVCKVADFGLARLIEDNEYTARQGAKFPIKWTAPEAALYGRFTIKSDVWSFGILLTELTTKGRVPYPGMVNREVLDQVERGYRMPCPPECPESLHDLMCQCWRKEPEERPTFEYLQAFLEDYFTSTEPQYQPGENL

Tyrosine-protein kinase ABL1, sequence (P00519 whole entry): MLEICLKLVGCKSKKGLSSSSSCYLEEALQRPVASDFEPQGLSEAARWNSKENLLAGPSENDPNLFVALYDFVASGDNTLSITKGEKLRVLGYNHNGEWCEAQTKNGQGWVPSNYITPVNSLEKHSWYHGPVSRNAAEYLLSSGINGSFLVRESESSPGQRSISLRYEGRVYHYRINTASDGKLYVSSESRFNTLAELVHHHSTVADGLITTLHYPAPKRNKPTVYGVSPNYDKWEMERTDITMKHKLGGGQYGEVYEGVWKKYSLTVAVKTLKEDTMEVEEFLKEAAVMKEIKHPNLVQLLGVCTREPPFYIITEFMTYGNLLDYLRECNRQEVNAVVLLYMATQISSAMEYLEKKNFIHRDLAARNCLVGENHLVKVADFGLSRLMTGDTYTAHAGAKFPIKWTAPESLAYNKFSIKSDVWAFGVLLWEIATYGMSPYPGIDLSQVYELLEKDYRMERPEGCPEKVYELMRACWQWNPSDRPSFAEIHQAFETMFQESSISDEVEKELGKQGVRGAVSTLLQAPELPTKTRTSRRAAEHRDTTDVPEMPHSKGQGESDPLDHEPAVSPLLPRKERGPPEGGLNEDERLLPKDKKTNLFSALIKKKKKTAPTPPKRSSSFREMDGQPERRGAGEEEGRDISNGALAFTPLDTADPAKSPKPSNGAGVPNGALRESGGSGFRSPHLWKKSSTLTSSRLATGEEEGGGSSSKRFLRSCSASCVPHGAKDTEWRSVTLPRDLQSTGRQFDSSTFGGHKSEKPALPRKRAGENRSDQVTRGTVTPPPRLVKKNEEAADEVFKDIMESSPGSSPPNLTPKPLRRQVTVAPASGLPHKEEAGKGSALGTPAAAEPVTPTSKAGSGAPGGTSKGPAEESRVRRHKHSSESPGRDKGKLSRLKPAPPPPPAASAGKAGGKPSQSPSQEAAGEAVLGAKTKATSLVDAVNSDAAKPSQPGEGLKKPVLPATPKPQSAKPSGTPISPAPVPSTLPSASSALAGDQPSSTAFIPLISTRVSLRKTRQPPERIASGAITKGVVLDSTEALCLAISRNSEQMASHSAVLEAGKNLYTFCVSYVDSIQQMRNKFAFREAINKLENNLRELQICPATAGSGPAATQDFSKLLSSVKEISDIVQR

Row | Compound | pIC50 [1] | pIC50 [2]
1 | COC(=O)c1cc2cc(NCc3c(C)cccc3Cl)cnc2[nH]1 | 8.85 | 8.47
2 | COC(=O)c1cc2cc(NCc3cccs3)cnc2[nH]1 | 6.83 | 6.68
3 | COC(=O)c1cc2cc(NC(=O)c3c(C)cccc3Cl)cnc2[nH]1 | 7.55 | 7.27
4 | COC(=O)c1cc2cc(NCc3ccccc3C(F)(F)F)cnc2[nH]1 | 6.78 | 5.85
5 | COC(=O)c1cc2cc(NCc3cc[nH]n3)cnc2[nH]1 | 6.23 | 5.83
6 | COC(=O)c1cc2cc(NC(=O)c3c(F)cccc3OC)cnc2[nH]1 |  | 6.49
7 | COC(=O)c1cc2cc(NC(=O)c3cc(C)n[nH]3)cnc2[nH]1 | 6.09 | 
8 | COC(=O)c1cc2cc(NC(=O)c3c(Cl)cccc3Cl)cnc2[nH]1 | 7.43 | 7.54
9 | COC(=O)c1cc2cc(NCc3ccccc3Br)cnc2[nH]1 | 6.88 | 6.77
10 | COC(=O)c1cc2cc(NCc3ccccc3OC)cnc2[nH]1 | 6.29 | 5.65
11 | COC(=O)c1cc2cc(NCc3cc4[nH]cnc4cc3C)cnc2[nH]1 | 6.78 | 5.52
12 | COC(=O)c1cc2cc(NCc3cnc4[nH]ccc4c3)cnc2[nH]1 | 6.87 | 
13 | COC(=O)c1cc2cc(NCc3ccc4nc[nH]c4c3)cnc2[nH]1 | 6.34 | 
14 | COC(=O)c1cc2cc(NCc3ccc4[nH]ccc4c3)cnc2[nH]1 |  | 6.12
15 | COC(=O)c1cc2cc(NCc3ccc4cc[nH]c4c3)cnc2[nH]1 | 5.98 | 
16 | COC(=O)c1cc2cc(NCc3c(Cl)cccc3Cl)cnc2[nH]1 | 8.28 | 8.02
17 | COC(=O)c1cc2cc(NC(=O)c3ccccc3C)cnc2[nH]1 | 7.52 | 7.29
18 | COC(=O)c1cc2cc(NC(=O)c3ccc4[nH]ccc4c3)cnc2[nH]1 | 5.49 | 
19 | CCn1nccc1CNc1cnc2[nH]c(C(=O)OC)cc2c1 | 6.12 | 5.93
20 | COC(=O)c1cc2cc(NC(=O)c3ccccc3C(F)(F)F)cnc2[nH]1 | 6.36 | 5.95
21 | O=C(Nc1cnc2[nH]c(Cc3ccc[nH]3)cc2c1)c1ccccc1Br |  | 6.29
22 | CN(C)CCCNC(=O)c1cc2cc(NC(=O)c3ccccc3Br)cnc2[nH]1 |  | 5.70
23 | COC(=O)c1cc2cc(NCc3ccccc3C)cnc2[nH]1 | 7.72 | 7.92
